Source: patent publication US5576339A, “Pyridyl substituted cyclopentadienes for the treatment of inflamation” (priority 1995, dated 1996)

Legend:
[1] = system: COX II enzyme; conditions: in words, literature; cited from earlier work
[2] = target: COX II; experiment: Assay for COX II activity (PGE2 ELISA, recombinant enzyme); type: biochemical, human or murine; conditions: arachidonic acid (10 μM), pre-incubated 10-20 minutes, pH 8.0; read-out: COX II ID50
Experimental: (§1) A 2.0 kb fragment containing the coding region of either human or murine COX-I or human or murine COX-II was cloned into a BamH1 site of the baculovirus transfer vector pVL1393 (Invitrogen) to generate the baculovirus transfer vectors for COX-I and COX-II in a manner similar to the method of D. R. O'Reilly et al (Baculovirus Expression Vectors: A Laboratory Manual (1992)). Recombinant baculoviruses were isolated by transfecting 4 μg of baculovirus transfer vector DNA into SF9 insect cells (2×10e8) along with 200 ng of linearized baculovirus plasmid DNA by the calcium phosphate method. See M. D. Summers and G. E. Smith, A Manual of Methods for Baculovirus Vectors and Insect Cell Culture Procedures. Texas Agric. Exp. Station Bull. 1555 (1987). Recombinant viruses were purified by three rounds of plaque purification and high titer (10E7-10E8 pfu/ml) stocks of virus were prepared. For large scale production, SF9 insect cells were infected in 10 liter fermentors (0.5×10^6 /ml) with the recombinant baculovirus stock such that the multiplicity of infection was 0.1. […]
(§2) COX activity was assayed as PGE2 formed/μg protein/time using an ELISA to detect the prostaglandin released. […] The PGE2 formed was measured by standard ELISA technology (Cayman Chemical).

[3] = target: COX I; experiment: Assay for COX I activity (PGE2 ELISA, recombinant enzyme); type: biochemical, human or murine; conditions: arachidonic acid (10 μM), pre-incubated 10-20 minutes, pH 8.0; read-out: COX I ID50
Experimental: as §1, §2

SMILES | inhibition of the COX II enzyme [1] | IC50 [2] [nM] | IC50 [3] [µM]
COc1ccc2cc(CC(=O)O)ccc2c1 [6-methoxy-2-napthylacetic acid] | selectively inhibit the COX II enzyme |  | 
CC1(C)C=C(c2ccc(F)cc2)C(c2ccc(S(C)(=O)=O)cc2)=C1 [Example 1, 1-Methylsulfonyl-4-[1,1-dimethyl-4-(4-fluorophenyl)cyclopenta-2,4-dien-3-yl]benzene] |  | 50 | 3.68
CS(=O)(=O)Nc1ccc([N+](=O)[O-])cc1OC1CCCCC1 [N-(2-cyclohexyloxy-4-nitrophenyl)methanesulfonamide] | inhibits the COX II enzyme |  | 
